One data set has as its system human neutrophils. Put plainly: Assay (d): Production of Platelet-Activating Factor (PAF), A23187-challenged neutrophils. The note with it: A23187 2 μM. Format: cell-based. The procedure: Assay (d): Assay for Production of Platelet-Activating Factor (PAF)
Blood is obtained from normal humans and neutrophils were isolated as described for the arachidonic acid release assay, above. The final leukocyte preparation should be of greater than 95% purity and viability.
Neutrophils were suspended in PBS at concentrations of 5 to 20×10^6 cells per ml. Cells were added to test tubes and treated with the desired compounds for 5 to 10 minutes, then challenged with calcium ionophore A23187, 2 μM and 20-30 μCi of [3H]acetic acid (NEN-Dupont, Boston, Mass.), or the vehicle of PBS with 0.25-1 mg/ml. After 5 to 20 minutes, the reactions were terminated by addition of an equal volume of chloroform:methanol (1:2, v/v) to the samples and the lipids were extracted by addition of equal volumes of chloroform and distilled water. The samples were vortexed and centrifuged at high speed and the chloroform layer removed to a clean tube.
The chloroform from each tube was evaporated to dryness and the material suspended in a small volume of chloroform or chloroform:methanol (25-100 μl) and the total material spotted on a Silica TLC plate. The plates were developed in chloroform/methanol/acetic acid/water (50:25:8:4, v/v) visualized by radioscanning (Bioscan) and the product, [^3 H]PAF, was scraped and quantified by liquid scintillation spectroscopy. […]

For another data set, the system named is human monocytes. Put plainly: Assay (f): stimulated eicosanoid (PGE2, LTC4) release by human monocytes. The format is cell-based. The note with it: Monocyte, 0.25 h, A23187 1 μM, 15 min. The procedure: Assay (f): Measurement of stimulated eicosanoid release by human monocytes.
Leukocyte-rich leukopaks obtained from Biological Specialties (Lansdale, Pa.) were collected from male volunteers who were not taking anti-inflammatory drugs. Leukopaks were centrifuged (90× g for 15 min) twice to remove the platelet-rich plasma. The cell pellet was washed by centrifugation and resuspended in HBSS without Ca^2+ or Mg^2+. Histopaque 1077 was layered under the cell suspension and centrifuged at 400× g for 30 min to obtain the buffy coat. The interfacial buffy coat, containing monocytes and lymphocytes, was removed and saved. The buffy coat was washed twice with HBSS without Ca^2+ or Mg^2+ by centrifugation. The cell pellet (4-6×10^8 cells/30 mls) was resuspended in iso-osmotic media (RPMI-1640, 10% heat inactivated fetal bovine serum (FBS), 0.2 mM L-glutamine, 2.5 mM HEPES) and layered over an equal volume of 46% Percol mixture (10X PBS/Percol; 9.25/0.75) and 54% iso-osmotic media and centrifuged for 30 min at 1000× g (Marshall and Roshak, Biochem. Cell Biol. 71: 331-339, 1993). The monocyte population located at the interface of the Percoll gradient was removed and washed twice in HBSS without Ca^2+ or Mg^2+.
Monocytes (5×10^6 /ml) were incubated as a suspension in serum-free RPMI- 1640 medium containing the vehicle DMSO (<1%) or drug for 30 min at […] after which vehicle or stimuli was added for the indicated time. The stimulating agent is solubilized in DMSO and appropriate vehicle controls were included in all experiments. The amount of stimuli was chosen from the linear portion of a concentration versus product curve usually representing 60-80% maximal stimulation over the indicated incubation time at 37° C. (A23187, 1 μM,(15 min). The reaction was terminated by reduction of pH through addition of citric acid and centrifugation (10 min, 400× g, 4° C.). Cell viability was monitored before and after experiments using trypan blue exclusion. The cell-free media was decanted and stored at -70° C. until analyzed. Prostaglandin E2 and LTC4 were directly measured in cell-free media using enzyme immunoassay (EIA) kits purchased from Caymen Chemical Co. (Ann Arbor, Mich.). Sample or standard dilutions were made with appropriate media and analyzed in triplicate. Results were obtained by extrapolation from a standard curve prepared in the media and expressed as pg or ng/ml of sample.

The next data set has as its system CoA-IT. Put plainly: Assay (b): CoA-IT activity in U937 cell microsomes. Format: biochemical, human. As to conditions: generally at 50 μM or less. From the text:
Assay (b): CoA-IT Activity
The following is a method to measure CoA-IT activity and the effects of compounds on CoA-IT activity. The assay is based upon mixing cellular material containing CoA-IT activity with a stable lyso phospholipid such as […] and measuring the production of phospholipid product such as […] occurring in the absence of added CoA or CoA-fatty acids.
Any inflammatory cell that contains high levels of CoA-IT activity can be used, such as neutrophils, macrophages or cell lines such as U937 cells. […] Cells were grown without differentiation (basal state) by any agent, such as dimethyl sulfoxide. As used herein, "inflammatory cells" include, but are not limited to neutrophils, macrophages, monocytes, lymphocytes, eosinophils, basophils, and mast cells.
Microsomes were prepared using standard techniques. In this case, cells were washed with a buffer of 250 mM sucrose, 10 mM Tris, 1 mM EGTA, 1 mM MgCl2, pH 7.4 and ruptured by N2 cavitation (750 psi, 10 minutes). The ruptured cells were centrifuged 1000× g, 5 minutes. The resulting supernatant was centrifuged at 20,000×g,~20 minutes. Microsomes were prepared from this supernatant by centrifugation at 100,000× g, 60 minutes. The resulting pellet was washed once with assay buffer (150 mM NaCl, 10 mM Na2 KPO4, 1 mM EGTA, pH 7.4), recentrifuged and the pellet resuspended in assay buffer (4-20 mg protein/ml) and was stored at -80° C. until assayed.
CoA-IT activity was measured in 1.5 ml centrifuge tubes in a total volume of 100 ul. Microsomes were diluted in assay buffer to the desired protein concentration (6-20 ug/tube). The reaction was initiated by addition of [3H] 1-alkyl-2-lyso-sn-glycero-3-phosphocholine (GPC)(~0.1 uCi/tube) and 1 μM final cold 1-alkyl-2-lyso-GPC in assay buffer with 0.25 mg/ml fatty acid-poor bovine serumalbumin (BSA) (Calbiochem, La Jolla, Calif.). [3H]1-alkyl-2-lyso-GPC, approximately 50 Ci/mmol, was from NEN-Dupont (Boston, Mass.) and cold 1-alkyl-2-lyso-GPC was from Biomol (Plymouth Meeting, Penn.). Microsomes were pretreated with desired agents for the desired time (10 minutes) before the addition of [3H]1-alkyl-2-lyso-GPC. The reaction was run for the desired time (10 minutes) at 37° C. The reaction was stopped and the lipids extracted by addition of 100 ul of chloroform:methanol (1:2, v/v) followed by 100 ul of chloroform and 100 ul of 1M KCI. The samples were vortexed and centrifuged at high speed in a microfuge for 2-3 minutes. An aliquot of the chloroform-extracted materials were separated, usually by TLC in chloroform/methanol/acetic acid/water (50:25:8:4, v/v), visualized by radioscanning (Bioscan) and the product, [3H] 1-alkyl-2-acyl-GPC, was scraped and quantified by liquid scintillation spectroscopy. […] Other methods can be used to separate substrate from product, including but not limited to column chromatography, affinity chromatography and post reaction derivitization.

The mark [1] stands for this setting: read-out: IC50 for LTC4 release.

Like-named read-outs stand apart in the source and are kept apart here.

The IC50 is the concentration that gives 50% inhibition. As for `O=C(Nc1cc(C(F)(F)F)cc(C(F)(F)F)c1)Nc1ccccc1Oc1ccccc1C(=O)O` [Example 2, 2-[2-[3-[3,5-Bis (trifluoromethyl)phenyl]ureido]phenoxy]benzoic acid], in the data set with human neutrophils, the “inhibition of PAF production” value is “positive activity”. Besides, the IC50 with human monocytes (setting [1]) is around 1 µM; with human monocytes (read-out: IC50 of PGE2 release), 0.1 to 1 µM. The “inhibition of CoA-IT activity in the microsomal CoA-IT assay” value in the data set with CoA-IT is recorded as “inhibit CoA-IT activity”.

On to `O=C(Nc1cc(C(F)(F)F)cc(C(F)(F)F)c1)Nc1cc(C(F)(F)F)ccc1Oc1ccccc1C(=O)O` [Example 7, 2-[2-[3-[3,5-Bis(trifluoromethyl)phenyl]ureido]-4-trifluoromethylphenoxy]benzoic acid], for which the “inhibition of PAF production” value in the data set with human neutrophils is “positive activity”. Also, the results for the IC50 with human monocytes (setting [1]) and in the data set on human monocytes (read-out: IC50 of PGE2 release) were 1 to 2 µM and above 10 µM, respectively. For the same compound, the “inhibition of CoA-IT activity in the microsomal CoA-IT assay” value in the data set with CoA-IT is reported as “inhibit CoA-IT activity”.

For the origin of these results see patent US5447957A, “Anti-inflammatory compounds” (SmithKline Beecham Corp., priority 1994, dated 1995).
